# Marks after values point to notes of the source that are not given here.
# How the values were obtained:
# [1] = test system: adjuvant arthritis; assay: Established adjuvant arthritis model (chronic adjuvant arthritis test); assay type: in vivo, male Charles River Lewis rats; details: 7 days; for Change in Paw Volume (ml) / Change in body weight(g): difference from day 21 to day 28; for % Change in plasma fibrinogen: relative to vehicle-treated arthritic animals
# [2] = test system: adjuvant arthritis; assay: as above; assay type: in vivo, male Charles River Lewis rats; details: for Change in Paw Volume (ml) / Change in body weight(g): difference from day 21 to day 28; for % Change in plasma fibrinogen: relative to vehicle-treated arthritic animals
# Experimental: That the compounds of this invention are effective anti-arthritic agents can be seen from the results obtained when these compounds are administered to rats in accordance with the chronic adjuvant arthritis test system disclosed in Billingham and Davies "Handbook of Experimental Pharmacology" (editors J.R. Vane and S.H. Ferreira) Vol. 50/II, pg. 108-144, Springer-Verlag, Berlin, 1979). In this procedure, adjuvant arthritis was induced by the injection on day 0 to 0.10 ml of adjuvant (a suspension of heat-killed, dessicated Mycobacterium butyricum, 0.5% (w/v), in heavy mineral oil containing 0.2% digitonin) subplantarly into the right hind paw ("developing" model) or the base of the tail ("established" model) of male Charles River Lewis rats (120-140 g) that were housed individually and given food and water ad lib. Paw volumes (both hind paws) were measured immediately after injection of the adjuvant. Paw volumes were also measured at selected time intervals to follow the development of inflammation-induced swelling in the arthritic paws by immersion of the paw to the level of the lateral malleolus in a mercury plethysmograph. In the established adjuvant arthritis model [Table 2], the arthritis was allowed to develop untreated for 21 days and then the arthritic animals were divided into experimental groups with approximately equal mean hind paw volumes. Starting on day 21, the arthritic animals were treated by intubation once a day with drugs for 7 days (Tween 80 as vehicle). Arthritic control animals received daily doses of the vehicle only. On day 28, the animals were sacrificed, plasma was collected and plasma fibrinogen levels were determined as described above. Antiinflammatory activity was determined by comparing the change in paw swelling in drug-treated arthritic animals (combined hind paw volume on day 28 minus combined hind paw volume on day 21) with the change in paw swelling in vehicle-treated arthritic animals. Drug-induced changes in plasma fibrinogen were also used to assess the antiinflammatory effects of the test drugs.
# [3] = Serum triglycerides and cholesterol in normal animals treated for 14 days; assay type: in vivo, rats; details: for Cholesterol (% change): serum, normal rats, vs vehicle-treated normal rats
# Experimental: Normal animals were also treated with the test retinoids for 14 days and serum samples were collected for the determination of serum triglycerides and cholesterol. Triglyceride and cholesterol levels in the drug-treated animals were compared with triglyceride and cholesterol levels in vehicle-treated animals.
# [4] = test system: adjuvant arthritis; assay: Developing adjuvant arthritis model (chronic adjuvant arthritis test); assay type: in vivo, male Charles River Lewis rats; details: for % Change in Paw Volume (day 23) left / % Change in Paw Volume (day 23) right / % Change in plasma fibrinogen: vs vehicle-treated arthritic animals; for Body Weight gain(g): body weight on day 23 minus day 0
# Experimental: That the compounds of this invention are effective anti-arthritic agents can be seen from the results obtained when these compounds are administered to rats in accordance with the chronic adjuvant arthritis test system disclosed in Billingham and Davies "Handbook of Experimental Pharmacology" (editors J.R. Vane and S.H. Ferreira) Vol. 50/II, pg. 108-144, Springer-Verlag, Berlin, 1979). In this procedure, adjuvant arthritis was induced by the injection on day 0 to 0.10 ml of adjuvant (a suspension of heat-killed, dessicated Mycobacterium butyricum, 0.5% (w/v), in heavy mineral oil containing 0.2% digitonin) subplantarly into the right hind paw ("developing" model) or the base of the tail ("established" model) of male Charles River Lewis rats (120-140 g) that were housed individually and given food and water ad lib. Paw volumes (both hind paws) were measured immediately after injection of the adjuvant. Paw volumes were also measured at selected time intervals to follow the development of inflammation-induced swelling in the arthritic paws by immersion of the paw to the level of the lateral malleolus in a mercury plethysmograph. In the developing adjuvant arthritis model [Table 1], drugs were administered once a day (starting on the day of adjuvant injection and continuing for 23 days) by intubation using Tween 80 (polyoxyethylene sorbitan mono-oleate) at a dose of 0.25 ml/100 g body weight as the vehicle. Arthritic control rats received daily doses of the vehicle only. On day 23, i.e., approximately 24 hours after the last dose of drug, the rats were sacrificed, plasma was collected and plasma fibrinogen levels were determined (ammonium sulfate turbidimetric method) as described by Exner et al., Amer. J. Clin. Path., 71:521-527 (1979). Anti-inflammatory activity of the test drugs were determined by comparing the extent of paw swelling (paw volume on day 23 minus the paw volume on day 0) in drug-treated arthritic rats with the extent of paw swelling in the vehicle-treated arthritic rats. Drug induced decreases in the level of plasma fibrinogen, an acute phase protein that is elevated in the plasma of rats with adjuvant-induced arthritis, were also used to quantitiate the anti-inflammatory activity.
# [5] = 75 µMoles/Kg p.o. tween 80, 7 days
# [6] = 25 μ Moles/Kg Po. Tween 80, daily for 23 days
# [7] = 75 μ Moles/Kg Po. Tween 80, daily for 23 days
smiles,measurement,setting,value
CCCCOc1ccsc1/C=C/C(C)=C/C=C/C(C)=C/C(=O)O,Change in Paw Volume (ml),[1]; 75 µMoles/Kg i.p. corn oil,-0.59* (1.14) ml
same,Change in body weight(g),[1]; 75 µMoles/Kg i.p. corn oil,11(10) g
same,% Change in plasma fibrinogen,[1]; 75 µMoles/Kg i.p. corn oil,-55* %
CCCCCCCCCOc1cc(C)sc1/C=C/C(C)=C/C=C/C(C)=C/C(=O)O,Change in Paw Volume (ml),[2]; [5],0.06* (1.03) ml
same,Change in body weight(g),[2]; [5],15(14) g
same,% Change in plasma fibrinogen,[2]; [5],-25* %
CC1=C(/C=C/C(C)=C/C=C/C(C)=C/C(=O)Nc2ccc(O)cc2)C(C)(C)CCC1 [4-hydroxyphenyl retinamide],hypertriglyceridemia,[3]; no dose given,hypertriglyceridemia
same,serum cholesterol elevation,[3]; no dose given,serum cholesterol elevation
"CCCCCCCCCOc1ccsc1/C=C/C(C)=C/C=C/C(C)=C/C(=O)O [the 1st table, row 4]",Cholesterol (% change),[3]; 25 μ Moles/Kg Po. Tween 80,-14* %
same,Cholesterol (% change),[3]; 75 μ Moles/Kg Po. Tween 80,-25* %
same,% Change in Paw Volume (day 23) left,[4]; [6],-50* %
same,% Change in Paw Volume (day 23) right,[4]; [6],-50* %
same,% Change in plasma fibrinogen,[4]; [6],-45* %
same,Body Weight gain(g),[4]; 25 μ Moles/Kg Po. Tween 80,31(37) g
same,% Change in Paw Volume (day 23) left,[4]; [7],-84* %
same,% Change in Paw Volume (day 23) right,[4]; [7],-68* %
same,% Change in plasma fibrinogen,[4]; [7],-55* %
same,Body Weight gain(g),[4]; 75 μ Moles/Kg Po. Tween 80,27(30) g
"CC1=C(/C=C/C(C)=C/C=C/C(C)=C/C(=O)Nc2ccc(O)cc2)C(C)(C)CCC1 [the 1st table, row 6, 4-hydroxyphenyl retinamide, reference compound]",Cholesterol (% change),[3]; 75 μ Moles/Kg Po. Tween 80,+66* %
same,% Change in Paw Volume (day 23) left,[4]; [7],-51* %
same,% Change in Paw Volume (day 23) right,[4]; [7],-49* %
same,% Change in plasma fibrinogen,[4]; [7],-42* %
same,Body Weight gain(g),[4]; 75 μ Moles/Kg Po. Tween 80,39(37) g
"CCCCCCCCCOc1ccsc1/C=C/C(C)=C/C=C/C(C)=C/C(=O)O [the 2nd table, row 3]",Change in Paw Volume (ml),"[2]; 25 µMoles/Kg p.o., 7 days",0.15*(0.84) ml
same,Change in body weight(g),"[2]; 25 µMoles/Kg p.o., 7 days",9(14) g
same,% Change in plasma fibrinogen,"[2]; 25 µMoles/Kg p.o., 7 days",-32* %
same,Change in Paw Volume (ml),[2]; [5],-0.63*(0.61) ml
same,Change in body weight(g),[2]; [5],5*(15) g
same,% Change in plasma fibrinogen,[2]; [5],-34* %
"CCCCCCCCCOc1ccsc1/C=C/C(C)=C/C=C/C(C)=C/C(=O)O [the 2nd table, row 5]",Change in Paw Volume (ml),[1]; 10 µMoles/Kg i.p. corn oil,0.18* (0.86) ml
same,Change in body weight(g),[1]; 10 µMoles/Kg i.p. corn oil,11(15) g
same,% Change in plasma fibrinogen,[1]; 10 µMoles/Kg i.p. corn oil,-18* %
